Data on 11 compounds can be found in ChEMBL document CHEMBL3608248, “Dimeric Macrocyclic Antagonists of Inhibitor of Apoptosis Proteins for the Treatment of Cancer” (ACS Med Chem Lett, 2015).

Converted amounts (≈) assume the structure as drawn. The source made the active and inactive calls. The rule behind the calls is not given here.

As a reminder, the IC50 is the concentration at which inhibition is half-maximal. Read a low IC50 as greater potency in that assay. A word on the solubility: it is the dissolved amount per volume that the medium holds. Low values mean little dissolved substance, high ones much dissolved substance. Usually Vd stands for the apparent volume that relates the amount in the body to the concentration in plasma or blood. A lower Vd goes with confinement near the circulation. By AUC is commonly meant the area under the concentration-time curve, a measure of exposure. A high value points to high exposure. As usually defined, the AUC(0-t) is exposure summed from dosing to a finite time, without extrapolation to infinity. A higher AUC(0-t) goes with more exposure. What is called clearance is a measure of how efficiently the substance is removed, as volume per time. One may read the half-life as how long it takes for the measured level to halve. The fraction unbound is the share of the substance not bound to proteins or other matrix. High values mean much free substance, low ones little free substance. As a reminder, the inhibition is the change of the read-out against control, counted positive when it falls. The low end stands for little suppression, the high end for strong suppression.

One data set in a line: cells. The note with it: Homo sapiens, A875, 72 h.
A further data set is described as follows: physchem. The note with it: buffer, pH 7.4.
Data set [1] can be described thus: in vivo. The note with it: Balb/C, mouse, iv, 1 mg/kg.
The species named for the next data set is Mus musculus. The note with it: in vivo, iv, 1 mg/kg, 7 h.
The nature of data set [2]: in vivo. Particulars: Balb/C, mouse, iv, 1 mg/kg. The source holds these as a separate data set.
A short description of data set [3]: in vivo. The note with it: Balb/C, mouse, iv, 1 mg/kg. This is another data set of the same source.
A short description of data set [4]: in vivo. Particulars: Balb/C, mouse, iv, 1 mg/kg. The source holds these as a separate data set.
The nature of data set [5]: in vitro. Particulars: human, plasma.
Data set [6] is described as follows: in vivo. The note with it: rat, iv, 1 mg/kg.
A further data set addresses hERG (Homo sapiens, UniProt Q12809). As to the kind of experiment: in vitro.
The next data set has as its system A875. Particulars: Homo sapiens, 50 mg/kg.
Data set [7] is described as follows: animal or person. The note with it: Homo sapiens, A875, ip, 72 h, read-out: TGI.
Data set [8] can be described thus: in vitro. Particulars: rat, liver microsomes. (Liver microsomes are vesicles of endoplasmic reticulum, rich in cytochrome P450 enzymes.)
The nature of data set [9]: in vivo. Particulars: dog, iv, 0.3 mg/kg.
Data set [10] in a line: in vivo. Particulars: rat, iv, 1 mg/kg. This is another data set of the same source.
Data set [11] in a line: in vitro. Particulars: mouse, plasma.
A short description of data set [12]: in vitro. The note with it: human, liver microsomes.
Data set [13] can be described thus: in vivo. The note with it: dog, iv, 0.3 mg/kg. This is another data set of the same source.
Data set [14] is described as follows: in vivo. The note with it: rat, iv, 1 mg/kg. The source holds these as a separate data set.
Another data set concerns HCT-116/VM46. As to the kind of experiment: cells. The note with it: Homo sapiens.
A short description of data set [15]: in vitro. Particulars: mouse, liver microsomes.
The test system of the next data set is HCT-116. As to the kind of experiment: cells. Particulars: Homo sapiens.
Data set [16] is described as follows: animal or person. The note with it: Homo sapiens, A875, ip, 72 h, read-out: TGI. The source holds these as a separate data set.
A short description of data set [17]: in vitro. Particulars: dog, plasma.
Data set [18] is described as follows: in vitro. Particulars: rat, plasma.
Data set [19] in a line: in vivo. The note with it: dog, iv, 0.3 mg/kg. The source holds these as a separate data set.
A short description of data set [20]: in vitro. The note with it: dog, liver microsomes.
The nature of data set [21]: animal or person. Particulars: Homo sapiens, A875, ip, read-out: TGI.

Chain of hERG (Q12809 whole entry): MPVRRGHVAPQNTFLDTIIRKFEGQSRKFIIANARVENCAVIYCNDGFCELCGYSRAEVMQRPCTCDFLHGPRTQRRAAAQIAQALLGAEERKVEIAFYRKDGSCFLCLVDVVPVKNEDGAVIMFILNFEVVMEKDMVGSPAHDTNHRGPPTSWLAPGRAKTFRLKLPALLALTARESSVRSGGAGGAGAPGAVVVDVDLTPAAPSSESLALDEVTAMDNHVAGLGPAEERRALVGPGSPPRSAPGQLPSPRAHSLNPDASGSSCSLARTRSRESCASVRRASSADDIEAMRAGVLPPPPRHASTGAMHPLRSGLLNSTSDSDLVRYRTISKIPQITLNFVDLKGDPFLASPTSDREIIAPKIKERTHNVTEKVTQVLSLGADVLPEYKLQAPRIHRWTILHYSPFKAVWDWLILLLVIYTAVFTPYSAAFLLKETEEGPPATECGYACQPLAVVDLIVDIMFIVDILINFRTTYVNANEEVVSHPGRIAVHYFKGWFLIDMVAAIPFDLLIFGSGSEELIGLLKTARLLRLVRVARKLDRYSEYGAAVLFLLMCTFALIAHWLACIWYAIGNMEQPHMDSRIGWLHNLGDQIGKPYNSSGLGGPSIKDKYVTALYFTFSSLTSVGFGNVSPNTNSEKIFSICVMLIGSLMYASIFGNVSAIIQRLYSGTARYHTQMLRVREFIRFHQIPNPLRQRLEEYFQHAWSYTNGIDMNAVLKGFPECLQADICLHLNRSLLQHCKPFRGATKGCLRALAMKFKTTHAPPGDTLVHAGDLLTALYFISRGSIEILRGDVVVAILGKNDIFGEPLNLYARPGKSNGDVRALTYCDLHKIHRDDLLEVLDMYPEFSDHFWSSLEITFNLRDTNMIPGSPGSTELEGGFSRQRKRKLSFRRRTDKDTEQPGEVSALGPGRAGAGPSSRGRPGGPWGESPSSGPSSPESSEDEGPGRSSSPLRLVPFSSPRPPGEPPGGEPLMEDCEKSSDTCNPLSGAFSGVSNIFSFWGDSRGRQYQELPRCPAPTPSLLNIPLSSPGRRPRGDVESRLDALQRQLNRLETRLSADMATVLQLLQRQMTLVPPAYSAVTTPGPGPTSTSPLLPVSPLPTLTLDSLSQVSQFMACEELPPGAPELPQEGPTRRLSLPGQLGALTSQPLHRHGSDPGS

With `CN[C@@H](C)C(=O)N[C@H](C(=O)N1C[C@@H]2C[C@H]1C(=O)N[C@@H](Cc1ccc3ccccc3c1)C(=O)N[C@H](C(=O)OC)Cc1ccc(cc1)OCc1cn(nn1)[C@H]1C[C@@H](C(=O)N[C@@H](Cc3ccc4ccccc4c3)C(=O)N[C@H](C(=O)OC)Cc3ccc(cc3)OCc3cn2nn3)N(C(=O)[C@@H](NC(=O)[C@H](C)NC)C(C)(C)C)C1)C(C)(C)C`, the IC50 in the data set “cells” was 690 nM.

`CN[C@@H](C)C(=O)N[C@H](C(=O)N1C[C@@H]2C[C@H]1C(=O)N[C@@H](Cc1ccc3ccccc3c1)C(=O)N[C@H](C(=O)O)Cc1ccc(cc1)OCc1cn(nn1)[C@H]1C[C@@H](C(=O)N[C@@H](Cc3ccc4ccccc4c3)C(=O)N[C@H](C(=O)O)Cc3ccc(cc3)OCc3cn2nn3)N(C(=O)[C@@H](NC(=O)[C@H](C)NC)C(C)(C)C)C1)C(C)(C)C` yielded a solubility in the data set “physchem” of 130 µg/mL (≈ 86.3 µM). This compound also came in with a 50% inhibitory concentration (IC50) in “cells” of 73 nM. In the data set “in vivo [1]”, this compound registered a Vd of 0.3 L/kg. Also, the AUC in the data set filed under Mus musculus was 1550 nM·h.

`CN[C@@H](C)C(=O)N[C@H](C(=O)N1C[C@H]2C/C=C/COc3ccc(cc3)C[C@@H](C(=O)O)NC(=O)[C@H](Cc3ccc4ccccc4c3)NC(=O)[C@@H]3C[C@@H](CN3C(=O)[C@@H](NC(=O)[C@H](C)NC)C(C)(C)C)n3cc(nn3)COc3ccc(cc3)C[C@@H](NS(=O)(=O)C3CC3)NC(=O)[C@H](Cc3ccc4ccccc4c3)NC(=O)[C@@H]1C2)C(C)(C)C` registered a half-inhibitory concentration (IC50) in “cells” of 51 nM.

In turn, `CN[C@@H](C)C(=O)N[C@H](C(=O)N1C[C@H]2C/C=C/COc3ccc(cc3)C[C@@H](C(=O)NS(=O)(=O)C3CC3)NC(=O)[C@H](Cc3ccc4ccccc4c3)NC(=O)[C@@H]3C[C@H](C/C=C/COc4ccc(cc4)C[C@@H](C(=O)O)NC(=O)[C@H](Cc4ccc5ccccc5c4)NC(=O)[C@@H]1C2)CN3C(=O)[C@@H](NC(=O)[C@H](C)NC)C(C)(C)C)C(C)(C)C` showed an IC50 in the data set “cells” of 23 nM.

On to `CN[C@@H](C)C(=O)N[C@H](C(=O)N1C[C@@H]2C[C@H]1C(=O)N[C@@H](Cc1ccc3ccccc3c1)C(=O)N[C@H](NS(=O)(=O)C1CC1)Cc1ccc(cc1)OCc1cn(nn1)[C@H]1C[C@@H](C(=O)N[C@@H](Cc3ccc4ccccc4c3)C(=O)N[C@H](C(=O)O)Cc3ccc(cc3)OCc3cn2nn3)N(C(=O)[C@@H](NC(=O)[C@H](C)NC)C(C)(C)C)C1)C(C)(C)C`, for which the IC50 in “cells” is 39 nM. Besides, in the data set “in vivo [2]”, the AUC(0-t) at 7 h amounted to 5.85 µM·h. In “in vivo [3]”, this compound showed a clearance of 1.5 mL/min/kg. Moreover, in the data set “in vivo [1]”, the Vd is 0.1 L/kg. In “in vivo [4]”, this compound had a half-life of 60 min.

The compound `CN[C@@H](C)C(=O)N[C@H](C(=O)N1C[C@@H]2C[C@H]1C(=O)N[C@@H](Cc1ccc3ccccc3c1)C(=O)N[C@H](C(=O)O)Cc1ccc(cc1)OCc1cn(nn1)[C@H]1C[C@@H](C(=O)N[C@@H](Cc3ccc4ccccc4c3)C(=O)N[C@H](C(=O)OC)Cc3ccc(cc3)OCc3cn2nn3)N(C(=O)[C@@H](NC(=O)[C@H](C)NC)C(C)(C)C)C1)C(C)(C)C` showed an IC50 in the data set “cells” of 310 nM.

The compound `CN[C@@H](C)C(=O)N[C@H](C(=O)N1C[C@H]2CCCCOc3ccc(cc3)C[C@@H](C(=O)NS(=O)(=O)C3CC3)NC(=O)[C@H](Cc3ccc4ccccc4c3)NC(=O)[C@@H]3C[C@H](CCCCOc4ccc(cc4)C[C@@H](C(=O)O)NC(=O)[C@H](Cc4ccc5ccccc5c4)NC(=O)[C@@H]1C2)CN3C(=O)[C@@H](NC(=O)[C@H](C)NC)C(C)(C)C)C(C)(C)C` yielded a solubility in “physchem” of less than 10 µg/mL. In “cells”, half-maximal inhibition (IC50) required 15 nM.

For the compound `C=CCOc1ccc(C[C@H](NC(=O)[C@H](Cc2ccc3ccccc3c2)NC(=O)[C@@H]2C[C@H](n3cc(COc4ccc(C[C@H](NC(=O)[C@H](Cc5ccc6ccccc6c5)NC(=O)[C@@H]5C[C@H](CC=C)CN5C(=O)[C@@H](NC(=O)[C@H](C)NC)C(C)(C)C)NS(=O)(=O)C5CC5)cc4)nn3)CN2C(=O)[C@@H](NC(=O)[C@H](C)NC)C(C)(C)C)C(=O)O)cc1`, in “cells”, the IC50 was more than 1000 nM.

For `CN[C@@H](C)C(=O)N[C@H](C(=O)N1C[C@H]2CCCCOc3ccc(cc3)C[C@@H](C(=O)O)NC(=O)[C@H](Cc3ccc4ccccc4c3)NC(=O)[C@@H]3C[C@@H](CN3C(=O)[C@@H](NC(=O)[C@H](C)NC)C(C)(C)C)n3cc(nn3)COc3ccc(cc3)C[C@@H](NS(=O)(=O)C3CC3)NC(=O)[C@H](Cc3ccc4ccccc4c3)NC(=O)[C@@H]1C2)C(C)(C)C`, the fraction unbound in “in vitro [5]” was determined as 0.075; in “in vitro [11]” it was 0.058; in “in vitro [17]”, 0.024; in “in vitro [18]”, 0.019. The half-life in the data set “in vivo [6]” is 60 min; in “in vitro [8]”, 84 min; in “in vitro [12]”, more than 120 min; in “in vitro [15]” it was more than 120 min; in the data set “in vivo [4]”, 102 min; in “in vivo [19]”, 282 min. For the same compound, the half-life in “in vitro [20]” is more than 120 min. At hERG, the inhibition at 30 um was determined as 9%. Also, the concentration in solution in “physchem” (solubility) came to 50 µg/mL (≈ 32.1 µM). Moreover, the TGI result with A875 is “Active”. In addition, the inhibition in vivo at 2 mg/kg in the data set “animal or person [7]” stood at 67%. Further, the area under the curve AUC(0-t) at 7 h in the data set “in vivo [9]” is 8.43 µM·h; in the data set “in vivo [2]”, 4.49 µM·h; in “in vivo [14]”, 1.71 µM·h. The IC50 in the data set “cells” was found to be 19 nM; in the data set on HCT-116/VM46 it was 11 nM; in the data set on HCT-116 it was 92 nM. The clearance in the data set “in vivo [10]” worked out at 6.2 mL/min/kg; in the data set “in vivo [3]”, 2.1 mL/min/kg; in “in vivo [13]”, 0.4 mL/min/kg. Also, the inhibition in vivo at 5 mg/kg in the data set “animal or person [16]” is more than 100%; in the data set “animal or person [21]”, 80%.

In “cells”, `CN[C@@H](C)C(=O)N[C@H](C(=O)N1C[C@@H]2C[C@H]1C(=O)N[C@@H](Cc1ccc3ccccc3c1)C(=O)N[C@H](C(=O)O)Cc1ccc(cc1)OCc1cn(nn1)[C@H]1C[C@@H](C(=O)N[C@@H](Cc3ccc4ccccc4c3)C(=O)N[C@H](c3nnn[nH]3)Cc3ccc(cc3)OCc3cn2nn3)N(C(=O)[C@@H](NC(=O)[C@H](C)NC)C(C)(C)C)C1)C(C)(C)C` gave an IC50 of 83 nM.

As for `CN[C@@H](C)C(=O)N[C@H](C(=O)N1C[C@@H]2C[C@H]1C(=O)N[C@@H](Cc1ccc3ccccc3c1)C(=O)N[C@H](NS(=O)(=O)C1CC1)Cc1ccc(cc1)OCc1cn(nn1)[C@H]1C[C@@H](C(=O)N[C@@H](Cc3ccc4ccccc4c3)C(=O)N[C@H](NS(=O)(=O)C3CC3)Cc3ccc(cc3)OCc3cn2nn3)N(C(=O)[C@@H](NC(=O)[C@H](C)NC)C(C)(C)C)C1)C(C)(C)C`, in “cells”, the IC50 is 79 nM. The same compound yielded an AUC(0-t) at 7 h in “in vivo [2]” of 2.35 µM·h. The compound also yielded a clearance in the data set “in vivo [3]” of 3.6 mL/min/kg. Also, in the data set “in vivo [1]”, the Vd is 0.3 L/kg. The compound also had a half-life in “in vivo [4]” of 54 min.
